Results taken from ChEMBL document CHEMBL2086258, “Laxiflorolides A and B, epimeric bishomoditerpene lactones from Isodon eriocalyx” (J Nat Prod, 2012).

Columns and labels:
Type in all cases: functional, cell-based
SW480 = experiment: Cytotoxicity against human SW480 cells after 48 hrs by MTT assay; conditions: SW480, 48 h
SMMC-7721 = experiment: Cytotoxicity against human SMMC7721 cells after 48 hrs by MTT assay; conditions: SMMC-7721, 48 h
HL-60 = experiment: Cytotoxicity against human HL60 cells after 48 hrs by MTT assay; conditions: HL-60, 48 h
MCF7 = experiment: Cytotoxicity against human MCF7 cells after 48 hrs by MTT assay; conditions: MCF7, 48 h
A549 = experiment: Cytotoxicity against human A549 cells after 48 hrs by MTT assay; conditions: A549, 48 h

Row | SMILES | IC50 (SW480; read-out: IC50) | IC50 (SW480; read-out: pIC50 (converted)) | IC50 (SMMC-7721; read-out: IC50) | IC50 (SMMC-7721; read-out: pIC50 (converted)) | IC50 (HL-60; read-out: IC50) | IC50 (HL-60; read-out: pIC50 (converted)) | IC50 (MCF7; read-out: IC50) | IC50 (MCF7; read-out: pIC50 (converted)) | IC50 (A549; read-out: IC50) | IC50 (A549; read-out: pIC50 (converted))
1 | C=C1[C@@H]2CC[C@H]3[C@]45CO[C@H](CC4=O)C(C)(C)C5=C(O)C(=O)[C@]3(C2)[C@@H]1O (relative stereo) | 15.4 µM | 15.8 µM | 21.5 µM | 20 µM | 9.9 µM | 9.9 µM | 12.9 µM | 12.6 µM | 24.9 µM | 25.1 µM
2 | C=C1C(=O)[C@]23C[C@H]1CC[C@H]2[C@@]12CO[C@]3(O)[C@@H](O)[C@@H]1C(C)(C)C=CC2=O [ERIOCALYXIN B] | 0.5 µM | 0.501 µM | 0.8 µM | 0.794 µM | 0.3 µM | 0.316 µM | 0.6 µM | 0.631 µM | 3.1 µM | 3.16 µM
3 | C=C(C=O)[C@@H]1CC[C@@H]2[C@@H](C1)C(=O)[C@@H](O)[C@@H]1C(C)(C)[C@H]3CC(=O)[C@@]21CO3 [LAXIFLORIN P] | 3.1 µM | 3.16 µM | 5.6 µM | 5.01 µM | 3.8 µM | 3.98 µM | 3.2 µM | 3.16 µM | 11.7 µM | 12.6 µM
4 | CC1(C)[C@H]2[C@H](O)C(=O)[C@@H]3C[C@H](C(=O)O)CC[C@H]3[C@@]23CO[C@@H]1CC3=O [LAXIFLORIN Q] | > 40 µM | > 39.8 µM | > 40 µM | > 39.8 µM | > 40 µM | > 39.8 µM | > 40 µM | > 39.8 µM | > 40 µM | > 39.8 µM
5 | C[C@H]1C[C@](O)([C@@H]2CC[C@@H]3[C@@H](C2)C(=O)[C@@H](O)[C@@H]2C(C)(C)[C@H]4CC(=O)[C@@]32CO4)C(=O)O1 [LAXIFLOROLIDE A] | > 40 µM | > 39.8 µM | > 40 µM | > 39.8 µM | > 40 µM | > 39.8 µM | > 40 µM | > 39.8 µM | > 40 µM | > 39.8 µM
6 | C[C@@H]1C[C@](O)([C@@H]2CC[C@@H]3[C@@H](C2)C(=O)[C@@H](O)[C@@H]2C(C)(C)[C@H]4CC(=O)[C@@]32CO4)C(=O)O1 [LAXIFLOROLIDE B] | > 40 µM | > 39.8 µM | > 40 µM | > 39.8 µM | > 40 µM | > 39.8 µM | > 40 µM | > 39.8 µM | > 40 µM | > 39.8 µM
7 | C=C1[C@@H]2CC[C@H]3[C@@]45CO[C@](O)([C@@H](O)[C@@H]4C(C)(C)C=CC5=O)[C@]3(C2)[C@@H]1O [MAOECRYSTAL C] | 14.5 µM | 15.8 µM | > 40 µM | > 39.8 µM | 18.9 µM | 20 µM | 14.4 µM | 15.8 µM | > 40 µM | > 39.8 µM
8 | C=C1C(=O)[C@]23C[C@H]1CC[C@H]2[C@]12CO[C@H](CC1=O)C(C)(C)C2=C(O)C3=O [MAOECRYSTAL P] | 2.1 µM | 2 µM | 2.8 µM | 2.51 µM | 1 µM | 1 µM | 1.8 µM | 2 µM | 6.3 µM | 6.31 µM
